Reference: patent US9598393B2, “Structural variants of mycolactones for use in modulating inflammation, immunity and pain” (priority 2011, dated 2017)
Read-outs that look alike come from different tables or passages of the source.

Legend:
T cell trafficking = details: Guenin-Macé et al., 2011; cited from earlier work
[1] = system: IL-2 production by Jurkat T cells; test: Immunosuppressive activity: activation-induced IL-2 production, ELISA; type: cell-based, human; details: for Cytokine production (M.A.: mean absorbance) (C) % relative to control / IC50: Jurkat T cells; for Cytokine production (M.A.: mean absorbance) (C) % relative to control: PMA + calcium ionophore, IL-2 ELISA; for IC50: IL-2, % inhibition relative to control, read-out: Cytokine production (C): IC50 value (concentration at which the compound induces 50% of mycolactone maximal activity); for Cytokine production (C): corresponding % of mycolactone activity (in brackets): relative to mycolactone (100%)
Method: (C) The immunosuppressive activity of mycolactone and variants was measured on Jurkat T cells (ATCC®; TIB-152™ clone E6-1), as models of human T lymphocytes. Cells were inoculated in 96-well plates (5×10^5 cells/well in RPMI 1640 medium supplemented with 10% fetal calf serum and 2 mM L-Glutamine) then incubated with serial dilutions of the various compounds for 4 h, and stimulated for 20 h with 50 ng/ml phorbol-12-myristate-13-acetate (PMA) and 1 μg/ml calcium ionophore. The production of IL-2 was then assessed in culture supernatants by ELISA.

[2] = Formalin-induced acute pain model; type: in vivo; details: intraperitoneally 60 minutes before formalin, Mycolactone 0.5 mg/kg; for activity against inflammatory pain (global score of pain, late phase 10-40 min): variant 22 5 mg/kg
Method: The analgesic properties of Mycolactone and variant 22 were tested in the formalin-induced acute pain model (Encyclopedia of Psychopharmacology, Volume 2, p. 111).
Briefly, Mycolactone and variant 22 were administered intraperitoneally at 0.5 and 5 mg/kg respectively, 60 minutes before the subcutaneous injection of 10 μl of a 5% formalin solution of the right hind-leg. Two negative control groups, injected with PBS (neutral) or ethanol vehicle (vehicle) were tested in the same conditions. A group injected with 3 mg/kg morphin 15 minutes before formalin injection was used as a positive reference.
The time spent in licking/biting and the number of jumps during the early phase (0-5 min) and the late phase (10-40 min) were recorded, as indicators of acute and inflammatory pain, respectively. The graphs in FIG. 5 compare the global score of pain (rank sum of licking/biting time and jump number) in the five groups of animals (Mann-Whitney test on trimmed means; n≧6; *P<0.05 **P<0.01 vs. neutral; # P<0.05, # P<0.01 vs. vehicle.

[3] = system: epithelial HeLa cell line; test: Cytopathic activity, MTT assay (effect on global cell metabolic activity); type: cell-based, human; details: for Metabolic activity (MA: mean absorbance) (A) % relative to control / IC50: HeLa cells, 48 h, MTT; for IC50: % inhibition relative to control, read-out: Metabolic activity (A): IC50 value (concentration at which the compound induces 50% of mycolactone maximal activity); for Metabolic activity (A): corresponding % of mycolactone activity (in brackets): relative to mycolactone (100%)
Method: (A) The cytopathic activity of mycolactone and variants was assessed in a [3-(4,5-Dimethylthiazol-2-yl)-2,5-Diphenyltetrazolium Bromide] (MTT) assay, using the epithelial HeLa cell line (ATCC®; CCL-2) as a model. Briefly, HeLa cells were plated in 96-well plates (10^4 cells/well) in Dulbecco's Modified Eagle culture medium supplemented with 10% fetal calf serum and 2 mM L-Glutamine. After 16 h, mycolactone or variants dilutions (final concentration 0.4-8 μM) were added to the wells, and incubated with the cells for 48 h, prior to the addition of MTT at 50 μg/ml. After 4 h, culture supernatants were removed and the formed formazan crystals dissolved in dimethyl sulfoxide (DMSO) for absorbance measurement.

dendritic cells = details: Coutanceau et al., 2007; cited from earlier work
[4] = system: CD62-L receptor expression by human peripheral blood cells (PBLs); test: T cell homing: expression of CD62-L receptor, flow cytometry; type: cell-based; details: for CD62-L expression (MFI: mean fluorescence intensity) (D) % relative to control / IC50: human PBLs, 72 h; for IC50: % inhibition relative to control, read-out: CD62-L expression (D): IC50 value (concentration at which the compound induces 50% of mycolactone maximal activity); for CD62-L expression (D): corresponding % of mycolactone activity (in brackets): relative to mycolactone (100%)
Method: (D) The effect of mycolactone and variants on T cell homing was assessed through their inhibitory effect on the expression of CD62-L receptor by human peripheral blood cells (PBLs). Human PBLs were isolated from total blood by Ficoll density gradient centrifugation. They were incubated in 96-well plates (10^5 cells/well in RPMI 1640 medium supplemented with 10% fetal calf serum and 2 mM L-Glutamine) with mycolactone or variant for 72 h. Cells were then fixed for 20 min in 4% paraformaldehyde (PFA) and stained with an anti-CD62-L antibody coupled with phycoerythrin in a solution of PBS, BSA 0.5%, saponin 0.05%, then analysed by flow cytometry.

macrophages = details: Coutanceau et al., 2005; cited from earlier work
HeLa cell = test: Cytotoxicity by Trypan Blue dye exclusion (cell viability); type: cell-based, human
Method: (B) HeLa cell death being negligible in the concentration and time frame conditions used in (A), the cytotoxicity of 16 μM mycolactone and variants was evaluated after 48 h of incubation by cell exclusion of the Trypan Blue dye. Here, one part of Trypan blue (0.4% in phosphate-buffered saline PBS) was mixed with one part cell suspension (recovered from cell culture wells by trypsin treatment). The mixture was incubated for 3 min at room temperature and unstained (viable) and stained (nonviable) cells counted separately with a hemacytometer.

| Compound | Cytokine production (M.A.: mean absorbance) (C) % relative to control ([1]; 0.4 μM) [%] | Cytokine production (M.A.: mean absorbance) (C) % relative to control ([1]; 4 μM) [%] | Cytokine production (M.A.: mean absorbance) (C) % relative to control ([1]; 8 μM) [%] | Cytokine production (C): corresponding % of mycolactone activity (in brackets) [1] [%] | activity against inflammatory pain (global score of pain, late phase 10-40 min) [2] | Metabolic activity (MA: mean absorbance) (A) % relative to control ([3]; 0.4 μM) [%] | Metabolic activity (MA: mean absorbance) (A) % relative to control ([3]; 4 μM) [%] | Metabolic activity (MA: mean absorbance) (A) % relative to control ([3]; 8 μM) [%] | Metabolic activity (A): corresponding % of mycolactone activity (in brackets) [3] [%] | CD62-L expression (MFI: mean fluorescence intensity) (D) % relative to control ([4]; 4 μM) [%] | CD62-L expression (MFI: mean fluorescence intensity) (D) % relative to control ([4]; 8 μM) [%] | CD62-L expression (D): corresponding % of mycolactone activity (in brackets) [4] [%] | IC50 ([1]; Homo sapiens) [µM] | IC50 ([4]; T-cell) [µM] | other results |
| --- | --- | --- | --- | --- | --- | --- | --- | --- | --- | --- | --- | --- | --- | --- | --- |
| Mycolactone [reference compound] | 99 | 100 | 100 | 100 | significant activity | 70 | 80 | 100 | 100 | 100 | 100 | 100 |  |  | T cell trafficking in vivo (T cell trafficking): severely impairs T cell trafficking; IC50 [1]: 0.1 µM; activation-induced production of IL-2 by human lymphocytes ([1]; at concentrations >0.4 μM): complete blockade; activity against acute pain (global score of pain, early phase 0-5 min) [2]: significant activity; IC50 [3]: 3.5 µM; cell viability ([3]; at concentrations >0.4 μM): markedly reduced cell viability; production of chemotactic signals by dendritic cells (dendritic cells): inhibits the production of chemotactic signals; CD62-L expression (MFI: mean fluorescence intensity) (D) % relative to control ([4]; 0.4 μM): 100%; expression of CD62-L ([4]; at concentrations >0.4 μM): totally suppressed; IC50 [4]: < 0.03 µM; release of inflammatory TNF by macrophages (macrophages): blocks the release of inflammatory TNF |
| CC(=C\C=C\C(C)=C\[C@H](O)[C@@H](O)C[C@H](C)O)/C=C(C)/C=C/C(=O)O[C@H]1CCCC(=O)O[C@@H](C(C)C)C/C=C/C[C@@H]1C [Compound 22, (6S,7S,9E,12R)-7-methyl-2-oxo-12-(propan-2-yl)-1-oxacyclododec-9-en-6-yl(2E,4E,6E,8E,10E,12S,13S,15S)-12,13,15-trihydroxy-4,6,10-trimethylhexadeca-2,4,6,8,10-pentaenoate] | 15 | 58 | 95 | 3.3 | effective | 0 | 0 | 0 |  | 60 | 70 | 0.8 | 3 | 3.7 | reduction of IL-2 production ([1]; at concentrations >4 μM): significant reduction; cytopathic effect ([3]; at concentrations <16 μM): no cytotoxic nor cytopathic effect; reduction of CD62-L expression ([4]; at concentrations >4 μM): significant reduction; cytotoxic effect (HeLa cell; at concentrations <16 μM): no cytotoxic nor cytopathic effect |
| CC(=C/C=C/C(C)=C/[C@H](O)[C@@H](O)C[C@@H](C)O)C=C(C)/C=C/C(=O)O[C@H]1CCCC(=O)O[C@@H]([C@@H](C)C/C(C)=C/[C@@H](C)[C@H](O)C[C@@H](C)O)C/C=C/C[C@@H]1C (racemic) [Compound 20b, (6S,7S,9E,12R)-12-[(2S,4E,6R,7R,9R)-7,9-dihydroxy-4,6-dimethyldec-4-en-2-yl]-7-methyl-2-oxo-1-oxacyclododec-9-en-6-yl(2E,4E,6E,8E,10E,12S,13S,15R)-12,13,15-trihydroxy-4,6,10-trimethylhexadeca-2,4,6,8,10-pentaenoate] | 20 | 55 | 92 | 2.5 |  | 0 | 10 | 15 | 23 | 0 | 50 | 0.4 | 4 | 8 | IC50 ([3]; Homo sapiens): 15 µM; cytopathic activity, reduction compared to mycolactones A/B ([3]; human): 4 fold; cytotoxicity compared to mycolactones A/B (HeLa cell; at 16 μM): equivalent cytotoxicity |
